Earlier results as cited in patent US11000540B1, “Treatment for reducing adverse events including chemotherapy discomfort and other conditions” (priority 2019, dated 2021).

conditions: buffer pair acid/conjugate base

Compound	pKa of Acid (or pH of 1:1 mixture)
Tris(hydroxymethyl)aminomethane	8.2
O=S(=O)(O)CCNC1CCCCC1 [N-Cyclohexy1-2-aminoethanesuifonic acid]	9.3
Boric Acid [Boric Acid/Borate]	9.0
NCC(=O)O [Glycine/Glycine anion, Glycine]	9.60
